These results are taken from US5466687A, “Arylidene-1-azacycloalkanes and arylalkyl-1-azacyclo-alkanes, their salts, medicaments containing these compounds and their use, and processes for their preparation” (priority 1992, dated 1995).

Series [1] has as its system human hepatoma cells (HEP-G2). As to the kind of experiment: Inhibition of 14C-acetate incorporation in digitonin-precipitatable steroids in HEP-G2 cells. The class given is cell-based. Particulars: Homo sapiens; for percent change in 14C-acetate incorporation into sterols at 0.1 µM: HepG2, 10^-7 mol/l; for percent change in 14C-acetate incorporation into sterols at 0.01 µM: HepG2, 10^-8 mol/l. As for the experimental part: I. Measurement of the inhibition of ^14 C-acetate incorporation in digitonin-precipitatable steroids:
After 3 days of culture, human hepatoma cells (HEP-G2) are stimulated for 16 hours in cholesterol-free medium. The substances to be tested (dissolved in dimethyl sulphoxide, final concentration 0.1%) are added during this stimulation phase. After the addition of 200 μmol/l of 2-^14 C-acetate, the mixture is then reincubated at 37° C. for a further 2 hours.
The cells are detached and the sterol esters are hydrolyzed and, after extraction, sterols are precipitated using digitonin. The ^14 C-acetate incorporated into digitonin-precipitatable sterols is determined by scintillation measurement.
The investigation of the inhibitory action was carried out at test concentrations of 10^-7 mol/l and 10^-8 mol/l. The test results of the following compounds A to AG of the general formula I are indicated at these test concentrations by way of example: […]

Series [2] relates to normolipaemic golden hamster. Put plainly: Lipid reduction in the normolipaemic golden hamster. In kind it is in vivo. The settings on record: 12 days, vs control group. As for the experimental part:
III. Lipid reduction in the normolipaemic golden hamster
Male golden hamsters are fed ad lib with a cholesterol-free hamster diet for 12 days. The substance to be tested is admixed to the feed in concentrations of 0.01 to 0.10%. At the end of the experimental period, the total cholesterol, the HDL fraction and also the VLDL+LDL fraction are determined by standard methods, a control group fed without test substance being used for comparison.
The hypolipidaemic activity of the above mentioned compound A was tested.

In series [3] the test system is 2,3-epoxysqualene-lanosterol cyclase. As to the kind of experiment: In vivo effect in the rat after oral administration: 2,3-epoxysqualene level in plasma. The arrangement: species or system rat (male Wistar). The settings on record: 5 hours after administration. As for the experimental part: II. Measurement of the in vivo effect in the rat after oral administration
The inhibition of the enzyme 2,3-epoxysqualene-lanosterol cyclase causes an increase in the 2,3-epoxy-squalene level in the liver and plasma. Therefore, the amount of 2,3-epoxysqualene formed therefore serves as a direct measure of the effectiveness in the whole animal. The determination is carried out by the following method:
The test substance suspended in 1.5% strength aqueous methylcellulose is administered via stomach tube to male Wistar rats (160-190 g body weight). 5 hours after administration, blood is obtained retroorbitally from the venous plexus. Plasma is extracted by the method of Bligh and Dyer (Canad. J. Biochem. Physiol. 37, 912, [1959]), purified by means of a precolumn and then analyzed by means of HPLC. The peaks obtained are identified and quantified by means of calibration substances. An internal standard is used to check the reproducibility of the results.
The investigations were carried out using concentrations of 0.1 and 1.0 mg/kg. The results for the above mentioned substances A to M are compiled in the following Table by way of example: […]

Series [4] can be described thus: Toxic effects in the mouse after oral administration. The settings on record: oral 100 mg/kg, once daily for 4 days. In kind it is in vivo. From the text: The compounds A to I appeared to be non-toxic at the curative dose.
Series [5] concerns Normal human epidermal keratinocytes (NHEK). Put plainly: Inhibition of cell proliferation of keratinocytes. The settings on record: read-out: percentage decrease in cell numbers. The class given is cell-based. The method, then:
V. Inhibition of cell proliferation
Normal human epidermal keratinocytes (NHEK) are cultured under sterile conditions in keratinocyte growth medium (Gibco) in a humidified, 5% CO2 -containing atmosphere. Cells of the third passage are inoculated at a density of 12,000 cells/ml.
After 24 hours, the test substance is added to the medium and the number of cells is determined after a further 48 hours. The results were calculated in comparison to a control and are indicated as the percentage decrease in cell numbers.
The proliferation-inhibiting action of the above mentioned compound A was tested in comparison to simvastatin at concentrations of 10^-6 to 10^-10 mol/l.

Series [6] concerns normolipaemic golden hamster. Put plainly: Determination of the lithogenic index in the normolipaemic golden hamster. The class given is in vivo. The settings on record: 20 days. The method, then: IV. Determination of the lithogenic index in the normolipaemic golden hamster
The lithogenic index is a measure of susceptibility to gallstone formation and is defined as the […] in mol %. It was determined by the method of Carey and Small, described in J. Clin. Investig. 61, 998-1026 [1978]. The higher the lithogenic index, the higher the probability of gallstone formation. The determination of the lithogenic index was carried out as follows:
Male golden hamsters are fed ad lib with a cholesterol-free hamster diet for 20 days. The substance to be tested is admixed to the feed in concentrations of 0.01 to 0.1%. At the end of the experimental period, total cholesterol, the HDL fraction and also the VLDL+LDL fraction in the serum, and the bile acids, the cholesterol and the phospholipids in the bile are determined by standard methods.
The compound A described above was tested. The percentage decrease in the lithogenic index was determined relative to the control.

Another series relates to smooth muscle cell. The settings on record: Cardiovasc. Drugs Ther. 5, Suppl. 3, 354 [1991]; cited from earlier work.
For another series, the system named is laying hens. The settings on record: FASEB Journal 4, A 533 [1990]; cited from earlier work.
The conditions of series [7]: cited from earlier work.
The conditions of series [8]: J. Biol. Chemistry 265, 18075-18078 [1990]; cited from earlier work.
The mark [9] stands for this setting: Gut 31, 348-350 [1990], Z. Gastroenterol. 29, 242-245 [1991].

Where two headings read alike, the source gives them in different places.

Consider `O=C(c1ccc(Cl)cc1)N1CCC(=Cc2ccc(C3=NCCO3)cc2)CC1` [A, 1-(4-chlorobenzoyl)-4-[4-(2-oxazolin-2-yl)benzylidene]piperidine], for which, in [1], the percent change in 14C-acetate incorporation into sterols at 0.1 µM was -81%. For the same compound, in [1], the percent change in 14C-acetate incorporation into sterols at 0.01 µM is -58%. Further, the HDL was -12.4% in series [2] (0.01% in feed), -17.5% in series [2] (0.03% in feed) and -13.9% in series [2] (0.10% in feed). For the same compound, the “Total Cholesterol” value is -19.8% in series [2] (0.01% in feed), -26.3% in series [2] (0.03% in feed) and -25.8% in series [2] (0.10% in feed). In addition, the “VLDL + LDL” value was -25.0% in series [2] (0.01% in feed), -31.2% in [2] (0.03% in feed) and -36.6% in series [2] (0.10% in feed). Moreover, the “2,3-Epoxysqualene concentration in plasma (rat)” value (shortened to “2,3-Epoxysqualene concentration”) in series [3] (0.1 mg/kg oral) worked out at 0.71 µg/mL; in series [3] (1.0 mg/kg oral) it was 3.75 µg/mL. In addition, the “toxic effects in the mouse” value in [4] is on record as “no toxic effects”. Also, in series [5] (10^-6 mol/l, 48 hours), the inhibition at 1 µM came to 72%. Besides, the inhibition at 0.1 µM in [5] (10^-7 mol/l, 48 hours) is 73%. Besides, the inhibition at 0.01 µM in [5] (10^-8 mol/l, 48 hours) was determined as 70%. For the same compound, the inhibition at 0.001 µM in [5] (10^-9 mol/l, 48 hours) was 48%. Moreover, the inhibition at 0.0001 µM in series [5] (10^-10 mol/l, 48 hours) stood at 16%. For the same compound, the “Lithogenic Index (percentage decrease relative to control)” value in series [6] (0.01% in feed) was -24%; in series [6] (0.03% in feed, n.s. = not significant), -10%; in series [6] (0.1% in feed), -28%.

Regarding `O=C(C1CCCCC1)N1CCC(=Cc2ccc(C3=NCCO3)cc2)CC1` [G, 1-cyclohexanecarbonyl-4-[4-(2-oxazolin-2-yl)benzylidene]piperidine], in [1], the percent change in 14C-acetate incorporation into sterols at 0.1 µM is -80% and the percent change in 14C-acetate incorporation into sterols at 0.01 µM is -45%. For the same compound, the “2,3-Epoxysqualene concentration” value in series [3] (0.1 mg/kg oral) was 0.36 µg/mL. For the same compound, the “2,3-Epoxysqualene concentration” value in [3] (1.0 mg/kg oral) was 0.31 µg/mL.

Take `O=C(c1ccc(C(F)(F)F)cc1)N1CCC(Cc2ccc(C3=NCCO3)cc2)CC1` [H, 4-[4-(2-oxazolin-2-yl)benzyl]-1-(4-trifluoromethylbenzoyl)piperidine]: the percent change in 14C-acetate incorporation into sterols at 0.1 µM in series [1] was -86%. The percent change in 14C-acetate incorporation into sterols at 0.01 µM in [1] was -62%. In addition, the “2,3-Epoxysqualene concentration” value in series [3] (0.1 mg/kg oral) came to 1.70 µg/mL; in series [3] (1.0 mg/kg oral), 9.15 µg/mL. The “toxic effects in the mouse” value in series [4] is “no toxic effects”.

On to `O=C(c1ccc(Cl)cc1)N1CCC(=Cc2ccc(C3=NCCO3)cc2)C1` [K, 1-(4-chlorobenzoyl)-3-[4-(2-oxazolin-2-yl)benzylidene]pyrrolidine], for which, in series [1], the percent change in 14C-acetate incorporation into sterols at 0.1 µM is -90% and the percent change in 14C-acetate incorporation into sterols at 0.01 µM was -56%. The “2,3-Epoxysqualene concentration” value in series [3] (0.1 mg/kg oral) came to 0.0 µg/mL. For the same compound, the “2,3-Epoxysqualene concentration” value in series [3] (1.0 mg/kg oral) is 4.14 µg/mL.

As to `O=C(c1ccc(Cl)cc1)N1CCC(=Cc2ccc(C3=NCCO3)cc2F)CC1` [L, 1-(4-chlorobenzoyl)-4-[2-fluoro-4-(2-oxazolin-2-yl)benzylidene]piperidine], in series [1], the percent change in 14C-acetate incorporation into sterols at 0.1 µM was -83% and the percent change in 14C-acetate incorporation into sterols at 0.01 µM is -52%. Besides, in [3] (0.1 mg/kg oral), the “2,3-Epoxysqualene concentration” value is 0.44 µg/mL. In addition, the “2,3-Epoxysqualene concentration” value in [3] (1.0 mg/kg oral) was 6.46 µg/mL.

For the compound `Cc1cc(C=C2CCN(C(=O)c3ccc(Cl)cc3)CC2)ccc1C1=NCCO1` [M, 1-(4-chlorobenzoyl)-4-[3-methyl-4-(2-oxazolin-2-yl)benzylidene]piperidine], in series [1], the percent change in 14C-acetate incorporation into sterols at 0.1 µM was -76% and the percent change in 14C-acetate incorporation into sterols at 0.01 µM was -32%. In addition, in [3] (0.1 mg/kg oral), the “2,3-Epoxysqualene concentration” value stood at 0.78 µg/mL. The “2,3-Epoxysqualene concentration” value in [3] (1.0 mg/kg oral) is 6.53 µg/mL.

Take `CCC(C)(C)C(=O)O[C@H]1C[C@@H](C)C=C2C=C[C@H](C)[C@H](CC[C@@H]3C[C@@H](O)CC(=O)O3)[C@H]21` [Simvastatin, simvastatin, reference compound]: in series [5] (48 h), the inhibition at 0.0001 µM was 7%, the inhibition at 0.001 µM is 21%, the inhibition at 0.01 µM turned out to be 20% and the inhibition at 0.1 µM was 51%. Besides, the inhibition at 1 µM in series [5] (48 h) was 68%.

With `CC[C@H](C)C(=O)O[C@H]1C[C@@H](C)C=C2C=C[C@H](C)[C@H](CC[C@@H]3C[C@@H](O)CC(=O)O3)[C@H]21` [lovastatin], the “smooth muscle cell proliferation” value with smooth muscle cell is recorded as “inhibition of smooth muscle cell proliferation”. In the series on laying hens, the “cholesterol content of eggs” value is listed as “lowering of the cholesterol content of eggs”. In [7] (setting [9]), the “cholesterol concentration in the bile / lithogenic index” value is on record as “can cause a reduction of the cholesterol concentration in the bile” and the gallstone formation entry was “do not lead to increased gallstone formation”. For the same compound, in series [7] (in particular in combination with ursodeoxycholic acid, Gastroenterology 102, A 319 [1992]), the dissolution of gallstones entry is reported as “effectiveness”.

`CC[C@H](C)C(=O)O[C@H]1C[C@H](O)C=C2C=C[C@H](C)[C@H](CC[C@@H](O)C[C@@H](O)CC(=O)O)[C@H]21` [pravastatin]: the “cholesterol concentration in the bile / lithogenic index” value in series [7] (setting [9]) was “can cause a reduction of the cholesterol concentration in the bile”. For the same compound, the gallstone formation entry in [7] (in vivo) is recorded as “do not lead to increased gallstone formation”.

Turning to `CCN(CC)CCOc1ccc(C(O)(Cc2ccc(Cl)cc2)c2ccc(C)cc2)cc1` (centres unmarked) [triparanol], in series [8], the “toxic effects leading to withdrawal from the market” value is “formation of cataracts, ichthyosis and alopecia”.
